PubChem BioAssay AID248 (DTP/NCI, 2004)
Values joined by “and” are separate entries in the source; they are usually repeats but may differ in a detail not shown here. Identical values can stand only once. Inconclusive results and toxic doses are left out. No stated cut-off is given here; in the data, active means T/C of 150% or more; inactive means T/C below 125%.

Tested on: L1210 leukemia ip in BDF1 mice, survival T/C
Assay: NCI In Vivo Anticancer Drug Screen. Data for tumor model L1210 Leukemia (intraperitoneal) in B6D2F1 (BDF1) mice
Conditions: endpoint: mean survival time, higher = longer survival
How it was run: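 Transplanted-tumor mice were given test agent; controls received vehicle only. Survival readings from the two groups were divided (treated over control).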

[1] = dose: 25.0 mg/kg/injection, schedule: Q01DX009 (ip), vehicle: saline
[2] = dose: 50.0 mg/kg/injection, schedule: Q01DX009 (ip), vehicle: saline
[3] = dose: 100.0 mg/kg/injection, schedule: Q04DX003 (ip), vehicle: saline with Tween-80
[4] = dose: 100.0 mg/kg/injection, schedule: Q04DX002 (ip), vehicle: Klucel (hydroxypropylcellulose) (HPC)
[5] = dose: 100.0 mg/kg/injection, schedule: Q01DX009 (ip), vehicle: Klucel (hydroxypropylcellulose) (HPC)
[6] = dose: 100.0 mg/kg/injection, schedule: Q04DX003 (ip), vehicle: Klucel (hydroxypropylcellulose) (HPC)
[7] = dose: 200.0 mg/kg/injection, schedule: Q01DX009 (ip), vehicle: Klucel (hydroxypropylcellulose) (HPC)
[8] = dose: 200.0 mg/kg/injection, schedule: Q04DX003 (ip), vehicle: Klucel (hydroxypropylcellulose) (HPC)
[9] = dose: 400.0 mg/kg/injection, schedule: Q01DX009 (ip), vehicle: Klucel (hydroxypropylcellulose) (HPC)
[10] = dose: 400.0 mg/kg/injection, schedule: Q04DX003 (ip), vehicle: Klucel (hydroxypropylcellulose) (HPC)
[11] = dose: 75.0 mg/kg/injection, schedule: Q04DX003 (ip), vehicle: Klucel (hydroxypropylcellulose) (HPC)
[12] = dose: 150.0 mg/kg/injection, schedule: Q04DX003 (ip), vehicle: Klucel (hydroxypropylcellulose) (HPC)
[13] = dose: 300.0 mg/kg/injection, schedule: Q04DX003 (ip), vehicle: Klucel (hydroxypropylcellulose) (HPC)
[14] = dose: 100.0 mg/kg/injection, schedule: Q01DX009 (ip), vehicle: saline with Tween-80
[15] = dose: 100.0 mg/kg/injection, schedule: Q01DX001 (ip), vehicle: Klucel (hydroxypropylcellulose) (HPC)
[16] = dose: 200.0 mg/kg/injection, schedule: Q01DX001 (ip), vehicle: Klucel (hydroxypropylcellulose) (HPC)
[17] = dose: 400.0 mg/kg/injection, schedule: Q01DX001 (ip), vehicle: Klucel (hydroxypropylcellulose) (HPC)
[18] = dose: 200.0 mg/kg/injection, schedule: Q04DX003 (ip), vehicle: saline with Tween-80
[19] = dose: 400.0 mg/kg/injection, schedule: Q04DX003 (ip), vehicle: saline with Tween-80

Measured: T/C

CNCC(O)c1ccc(O)cc1 (configuration not stated)
inactive: [1] 96 % of control | dose: 25.0 mg/kg/injection, schedule: Q04DX003 (ip), vehicle: saline 111 % of control | [2] 105 % of control | dose: 50.0 mg/kg/injection, schedule: Q04DX003 (ip), vehicle: saline 101 % of control | dose: 100.0 mg/kg/injection, schedule: Q01DX009 (ip), vehicle: saline 98 % of control | dose: 100.0 mg/kg/injection, schedule: Q04DX003 (ip), vehicle: saline 90 % of control and 101 % of control | dose: 200.0 mg/kg/injection, schedule: Q01DX009 (ip), vehicle: saline 98 % of control | dose: 200.0 mg/kg/injection, schedule: Q04DX003 (ip), vehicle: saline 88 % of control and 104 % of control | dose: 400.0 mg/kg/injection, schedule: Q01DX009 (ip), vehicle: saline 100 % of control | dose: 400.0 mg/kg/injection, schedule: Q04DX003 (ip), vehicle: saline 98 % of control and 120 % of control

O=C1C(Br)=C(Br)c2ccccc21
inactive: dose: 50.0 mg/kg/injection, schedule: Q01DX001 (ip), vehicle: carboxymethylcellulose (CMC) 100 % of control | dose: 100.0 mg/kg/injection, schedule: Q01DX001 (ip), vehicle: carboxymethylcellulose (CMC) 99 % of control

Cc1ccc(C(C)NC2=NCCO2)c(C)c1 (configuration not stated)
inactive: [3] 105 % of control

CCCCC(CCN1CCCC1)(CNC(=O)CN(CC)CC)c1cccc2ccccc12 (configuration not stated)
inactive: [1] 94 % of control | dose: 25.0 mg/kg/injection, schedule: Q04DX002 (ip), vehicle: Klucel (hydroxypropylcellulose) (HPC) 103 % of control | [2] 102 % of control | dose: 50.0 mg/kg/injection, schedule: Q04DX002 (ip), vehicle: Klucel (hydroxypropylcellulose) (HPC) 100 % of control | [4] 107 % of control

Nc1nc2[nH]c(=O)cnc2c(=O)[nH]1
inactive: dose: 50.0 mg/kg/injection, schedule: Q01DX009 (ip), vehicle: Klucel (hydroxypropylcellulose) (HPC) 102 % of control | dose: 50.0 mg/kg/injection, schedule: Q04DX003 (ip), vehicle: Klucel (hydroxypropylcellulose) (HPC) 107 % of control | [5] 111 % of control | [6] 110 % of control | [7] 107 % of control | [8] 102 % of control | [9] 95 % of control | [10] 104 % of control

Cc1cc(NCCN(C(C)C)C(C)C)nc(/N=C(\N)Nc2ccc(Cl)c(C(F)(F)F)c2)n1
inactive: dose: 1.25 mg/kg/injection, schedule: Q01DX009 (ip), vehicle: Klucel (hydroxypropylcellulose) (HPC) 109 % of control | dose: 2.5 mg/kg/injection, schedule: Q01DX009 (ip), vehicle: Klucel (hydroxypropylcellulose) (HPC) 104 % of control | dose: 5.0 mg/kg/injection, schedule: Q01DX009 (ip), vehicle: Klucel (hydroxypropylcellulose) (HPC) 107 % of control | dose: 9.37 mg/kg/injection, schedule: Q01DX009 (ip), vehicle: Klucel (hydroxypropylcellulose) (HPC) 98 % of control | dose: 10.0 mg/kg/injection, schedule: Q01DX009 (ip), vehicle: Klucel (hydroxypropylcellulose) (HPC) 102 % of control | dose: 18.75 mg/kg/injection, schedule: Q01DX009 (ip), vehicle: Klucel (hydroxypropylcellulose) (HPC) 96 % of control | dose: 20.0 mg/kg/injection, schedule: Q01DX009 (ip), vehicle: Klucel (hydroxypropylcellulose) (HPC) 98 % of control | dose: 75.0 mg/kg/injection, schedule: Q01DX001 (ip), vehicle: other 103 % of control | [11] 100 % of control | dose: 150.0 mg/kg/injection, schedule: Q01DX001 (ip), vehicle: other 98 % of control | [12] 100 % of control | dose: 300.0 mg/kg/injection, schedule: Q01DX001 (ip), vehicle: other 110 % of control | [13] 105 % of control

C=C(C)CSC#N
inactive: dose: 25.0 mg/kg/injection, schedule: Q01DX009 (ip), vehicle: saline with Tween-80 101 % of control | dose: 50.0 mg/kg/injection, schedule: Q01DX009 (ip), vehicle: saline with Tween-80 96 % of control | [14] 101 % of control

Cc1ccc(N=Nc2c(N)nc(N)[nH]c2=O)cc1C
inactive: dose: 100.0 mg/kg/injection, schedule: Q01DX001 (ip), vehicle: saline 100 % of control | dose: 200.0 mg/kg/injection, schedule: Q01DX001 (ip), vehicle: saline 96 % of control | dose: 400.0 mg/kg/injection, schedule: Q01DX001 (ip), vehicle: saline 96 % of control

O=C(O)CN(CCCCN(CC(=O)O)CC(=O)O)CC(=O)O
inactive: dose: 100.0 mg/kg/injection, schedule: Q01DX001 (ip), vehicle: other 111 % of control | dose: 200.0 mg/kg/injection, schedule: Q01DX001 (ip), vehicle: other 117 % of control | dose: 400.0 mg/kg/injection, schedule: Q01DX001 (ip), vehicle: other 96 % of control

O=C(NC(=O)C(Cl)Cl)Nc1ccc2c(c1)-c1ccccc1C2
inactive: [15] 87 % of control | [5] 96 % of control | [6] 92 % of control | [16] 90 % of control | [7] 94 % of control | [8] 92 % of control | [17] 92 % of control | [9] 100 % of control | [10] 88 % of control

CN(N=O)C(=O)NCCn1cnc2c(=S)nc[nH]c21
inactive: dose: 6.0 mg/kg/injection, schedule: Q01DX Z (ip), vehicle: carboxymethylcellulose (CMC) 95 % of control | dose: 12.0 mg/kg/injection, schedule: Q01DX Z (ip), vehicle: carboxymethylcellulose (CMC) 92 % of control | dose: 25.0 mg/kg/injection, schedule: Q01DX Z (ip), vehicle: carboxymethylcellulose (CMC) 109 % of control | dose: 50.0 mg/kg/injection, schedule: Q01DX Z (ip), vehicle: carboxymethylcellulose (CMC) 114 % of control | dose: 100.0 mg/kg/injection, schedule: Q01DX Z (ip), vehicle: carboxymethylcellulose (CMC) 104 % of control | dose: 150.0 mg/kg/injection, schedule: Q01DX Z (ip), vehicle: carboxymethylcellulose (CMC) 121 % of control

O=C(O)CCc1cnc2ccccc2n1
inactive: [5] 97 % of control | [6] 106 % of control | [7] 95 % of control | [8] 95 % of control | [9] 96 % of control | [10] 92 % of control

O=C(O)/C=C/c1ccc(O)cc1
inactive: [11] 97 % of control | [12] 101 % of control | [13] 109 % of control

O=C1OC(c2ccccc2)(C2(c3ccccc3)C=C(c3ccccc3)C(=O)O2)C=C1c1ccccc1 (configuration not stated)
inactive: [15] 100 % of control | [6] 94 % of control | [16] 97 % of control | [8] 103 % of control | [17] 100 % of control | [10] 91 % of control

Brc1ccc(N2N=NC3CNCC32)cc1 (configuration not stated)
inactive: [3] 92 % of control | [18] 105 % of control | [19] 94 % of control

O=C(/C=C\c1cccc2ccccc12)c1ccc2ccccc2c1
inactive: [14] 100 % of control | dose: 100.0 mg/kg/injection, schedule: Q04DX002 (ip), vehicle: saline with Tween-80 88 % of control | dose: 200.0 mg/kg/injection, schedule: Q01DX009 (ip), vehicle: saline with Tween-80 90 % of control | dose: 200.0 mg/kg/injection, schedule: Q04DX002 (ip), vehicle: saline with Tween-80 88 % of control | dose: 400.0 mg/kg/injection, schedule: Q01DX009 (ip), vehicle: saline with Tween-80 93 % of control | dose: 400.0 mg/kg/injection, schedule: Q04DX002 (ip), vehicle: saline with Tween-80 88 % of control

COC(OC)c1cc(=O)[nH]c(=S)n1Cl
inactive: [5] 86 % of control | [6] 102 % of control | [7] 91 % of control | [8] 107 % of control | [9] 91 % of control | [10] 105 % of control

c1ccc(-c2cc3c(nn2)[nH]c2ccccc23)cc1
inactive: [4] 105 % of control | dose: 200.0 mg/kg/injection, schedule: Q04DX002 (ip), vehicle: Klucel (hydroxypropylcellulose) (HPC) 97 % of control | dose: 400.0 mg/kg/injection, schedule: Q04DX002 (ip), vehicle: Klucel (hydroxypropylcellulose) (HPC) 87 % of control

CC1(C)OC2OC(C3COC(=O)O3)C(O)C2O1 (configuration not stated)
inactive: [15] 114 % of control | [16] 101 % of control | [17] 96 % of control

CCCCCCC(C)O[Si](C)OCC (configuration not stated)
inactive: [3] 95 % of control | [18] 101 % of control | [19] 96 % of control
